From ChEMBL document CHEMBL5465560, “Selectivity Literature for EUbOPEN Chemogenomic Library” (2024)

Legend:
[1] = biological target: T1, Serine/threonine-protein kinase DCLK3 (Homo sapiens) (UniProt Q9C098); experiment: Selectivity interaction (KinomeScan (DiscoverX)) EUB0000666a DCLK3; details: at 10 µM
T1 sequence (whole entry): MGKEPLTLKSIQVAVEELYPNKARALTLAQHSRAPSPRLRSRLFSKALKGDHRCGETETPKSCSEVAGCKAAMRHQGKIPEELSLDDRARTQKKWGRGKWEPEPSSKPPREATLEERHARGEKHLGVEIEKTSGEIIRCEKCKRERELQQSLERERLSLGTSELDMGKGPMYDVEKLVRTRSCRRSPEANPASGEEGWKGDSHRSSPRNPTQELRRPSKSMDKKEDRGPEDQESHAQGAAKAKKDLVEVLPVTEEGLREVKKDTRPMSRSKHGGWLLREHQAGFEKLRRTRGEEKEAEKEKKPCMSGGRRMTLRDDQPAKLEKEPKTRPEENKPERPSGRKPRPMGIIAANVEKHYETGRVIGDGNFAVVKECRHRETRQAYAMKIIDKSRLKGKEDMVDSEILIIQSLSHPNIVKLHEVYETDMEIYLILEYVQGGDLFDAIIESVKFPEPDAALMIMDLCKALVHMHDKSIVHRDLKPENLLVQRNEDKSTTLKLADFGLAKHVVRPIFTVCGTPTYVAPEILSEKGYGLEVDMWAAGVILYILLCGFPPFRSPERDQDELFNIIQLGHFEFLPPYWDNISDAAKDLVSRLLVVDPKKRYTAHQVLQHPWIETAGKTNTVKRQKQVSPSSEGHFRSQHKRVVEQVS

[2] = biological target: Dual specificity tyrosine-phosphorylation-regulated kinase 1B (Homo sapiens, UniProt Q9Y463); experiment: Selectivity interaction (KinomeScan (DiscoverX)) EUB0001079a DYRK1B; details: at 1 µM
[3] = biological target: T2, Serine/threonine-protein kinase DCLK1 (Homo sapiens) (UniProt O15075); experiment: Selectivity interaction (Kinase panel (DSF assay)) EUB0001559a DCLK1
T2 sequence (whole entry): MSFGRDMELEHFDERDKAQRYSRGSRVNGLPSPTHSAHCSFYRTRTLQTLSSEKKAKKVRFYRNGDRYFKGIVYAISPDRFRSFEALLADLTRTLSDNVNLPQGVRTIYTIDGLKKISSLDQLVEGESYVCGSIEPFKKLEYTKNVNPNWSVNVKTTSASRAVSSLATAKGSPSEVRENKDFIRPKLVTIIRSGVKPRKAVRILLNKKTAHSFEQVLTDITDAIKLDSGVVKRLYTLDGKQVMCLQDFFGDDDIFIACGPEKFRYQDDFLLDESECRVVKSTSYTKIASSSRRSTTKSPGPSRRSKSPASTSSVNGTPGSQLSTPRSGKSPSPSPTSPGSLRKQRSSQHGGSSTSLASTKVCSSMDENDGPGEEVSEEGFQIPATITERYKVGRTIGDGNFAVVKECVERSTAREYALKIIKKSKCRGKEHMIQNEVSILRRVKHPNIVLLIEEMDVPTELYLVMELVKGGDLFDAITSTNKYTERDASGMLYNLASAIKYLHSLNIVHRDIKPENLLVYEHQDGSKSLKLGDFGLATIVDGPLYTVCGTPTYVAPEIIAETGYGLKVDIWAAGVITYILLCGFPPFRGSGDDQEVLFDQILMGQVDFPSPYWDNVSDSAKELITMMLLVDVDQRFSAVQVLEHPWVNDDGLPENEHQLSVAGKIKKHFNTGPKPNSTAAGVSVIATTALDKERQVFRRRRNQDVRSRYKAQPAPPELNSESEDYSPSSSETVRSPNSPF

[4] = biological target: T3, Tyrosine-protein kinase Mer (Homo sapiens) (UniProt Q12866); experiment: Selectivity interaction (Kinase screening (Nanosyn)) EUB0000604a MERTK
T3 sequence (whole entry): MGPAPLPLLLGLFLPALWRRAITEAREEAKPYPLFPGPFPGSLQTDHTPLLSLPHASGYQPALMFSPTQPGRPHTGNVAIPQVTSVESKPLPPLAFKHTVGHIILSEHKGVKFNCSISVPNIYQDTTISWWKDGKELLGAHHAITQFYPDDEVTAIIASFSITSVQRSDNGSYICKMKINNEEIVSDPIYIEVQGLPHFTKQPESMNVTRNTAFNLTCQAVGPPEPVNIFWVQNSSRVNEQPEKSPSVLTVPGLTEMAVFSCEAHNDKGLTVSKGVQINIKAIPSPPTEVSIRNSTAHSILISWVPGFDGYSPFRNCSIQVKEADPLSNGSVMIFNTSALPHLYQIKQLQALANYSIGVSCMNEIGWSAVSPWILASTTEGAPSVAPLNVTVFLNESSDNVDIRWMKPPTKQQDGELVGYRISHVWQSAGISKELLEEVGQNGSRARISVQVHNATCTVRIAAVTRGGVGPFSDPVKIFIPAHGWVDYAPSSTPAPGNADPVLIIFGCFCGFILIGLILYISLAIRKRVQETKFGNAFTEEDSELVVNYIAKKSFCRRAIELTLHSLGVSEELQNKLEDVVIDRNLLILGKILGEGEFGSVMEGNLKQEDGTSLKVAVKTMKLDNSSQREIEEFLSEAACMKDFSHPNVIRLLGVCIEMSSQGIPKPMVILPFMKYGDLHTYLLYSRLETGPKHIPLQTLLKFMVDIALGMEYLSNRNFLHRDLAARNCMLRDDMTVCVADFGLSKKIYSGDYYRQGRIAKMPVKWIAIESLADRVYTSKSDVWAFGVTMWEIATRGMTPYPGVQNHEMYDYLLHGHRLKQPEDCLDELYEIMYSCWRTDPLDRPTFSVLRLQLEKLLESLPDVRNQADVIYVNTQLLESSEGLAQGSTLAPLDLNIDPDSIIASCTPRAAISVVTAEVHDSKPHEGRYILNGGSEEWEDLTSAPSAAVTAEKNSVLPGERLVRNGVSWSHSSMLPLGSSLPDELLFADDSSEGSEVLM

[5] = biological target: Serine/threonine-protein kinase SIK1 (Homo sapiens) (UniProt P57059); experiment: Selectivity interaction (KinomeScan (DiscoverX)) EUB0000045b SIK1
[6] = biological target: Serine/threonine-protein kinase 35 (Homo sapiens) (UniProt Q8TDR2); experiment: Selectivity interaction (KinomeScan (DiscoverX)) EUB0000045b STK35
[7] = biological target: Dual specificity protein kinase CLK3 (Homo sapiens, UniProt P49761); details: at 10 µM
[8] = biological target: RAF proto-oncogene serine/threonine-protein kinase (Homo sapiens) (UniProt P04049); details: at 10 µM
[9] = biological target: Serine/threonine-protein kinase B-raf (Homo sapiens) (UniProt P15056); experiment: Selectivity interaction (SelectScreen profiling (Invitrogen)) EUB0000607a BRAF; details: at 2 µM
[10] = biological target: Casein kinase II subunit alpha (Homo sapiens, UniProt P68400); experiment: Selectivity interaction (SelectScreen profiling (Invitrogen)) EUB0000607a CSNK2A1; details: at 2 µM
Sequence of Casein kinase II subunit alpha (P68400 whole entry, looked up): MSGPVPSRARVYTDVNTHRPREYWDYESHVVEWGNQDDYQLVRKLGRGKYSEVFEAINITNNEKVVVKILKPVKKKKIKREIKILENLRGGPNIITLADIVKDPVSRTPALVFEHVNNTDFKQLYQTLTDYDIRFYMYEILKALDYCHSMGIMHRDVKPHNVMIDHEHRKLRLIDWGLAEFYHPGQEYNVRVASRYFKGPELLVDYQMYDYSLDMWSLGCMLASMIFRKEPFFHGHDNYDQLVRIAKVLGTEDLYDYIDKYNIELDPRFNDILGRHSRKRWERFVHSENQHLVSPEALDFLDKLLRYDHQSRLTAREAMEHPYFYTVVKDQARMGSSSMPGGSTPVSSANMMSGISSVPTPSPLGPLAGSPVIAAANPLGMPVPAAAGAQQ

Sequence of Serine/threonine-protein kinase SIK1 (Homo sapiens) (P57059 whole entry): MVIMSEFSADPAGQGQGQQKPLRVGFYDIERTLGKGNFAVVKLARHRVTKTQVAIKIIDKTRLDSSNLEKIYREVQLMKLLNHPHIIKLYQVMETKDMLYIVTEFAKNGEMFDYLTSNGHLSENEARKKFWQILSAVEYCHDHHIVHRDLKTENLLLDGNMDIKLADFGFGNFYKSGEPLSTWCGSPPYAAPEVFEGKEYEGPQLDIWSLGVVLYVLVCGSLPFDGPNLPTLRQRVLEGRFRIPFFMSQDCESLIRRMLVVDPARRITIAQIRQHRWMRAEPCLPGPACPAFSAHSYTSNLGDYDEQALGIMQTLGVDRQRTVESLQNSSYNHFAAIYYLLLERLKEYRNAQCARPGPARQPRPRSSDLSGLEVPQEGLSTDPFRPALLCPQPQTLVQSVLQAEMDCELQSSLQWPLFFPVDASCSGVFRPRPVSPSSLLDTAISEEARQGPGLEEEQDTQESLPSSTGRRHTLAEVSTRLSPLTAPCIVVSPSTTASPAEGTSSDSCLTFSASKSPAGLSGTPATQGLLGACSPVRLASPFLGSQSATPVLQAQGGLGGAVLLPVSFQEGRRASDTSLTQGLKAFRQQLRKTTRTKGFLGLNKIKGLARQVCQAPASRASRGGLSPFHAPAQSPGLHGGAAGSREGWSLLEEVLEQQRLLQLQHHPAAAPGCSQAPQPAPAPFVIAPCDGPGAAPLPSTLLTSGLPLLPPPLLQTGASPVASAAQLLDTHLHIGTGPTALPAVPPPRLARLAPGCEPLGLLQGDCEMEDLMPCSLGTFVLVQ
Sequence of Serine/threonine-protein kinase 35 (Homo sapiens) (Q8TDR2 whole entry): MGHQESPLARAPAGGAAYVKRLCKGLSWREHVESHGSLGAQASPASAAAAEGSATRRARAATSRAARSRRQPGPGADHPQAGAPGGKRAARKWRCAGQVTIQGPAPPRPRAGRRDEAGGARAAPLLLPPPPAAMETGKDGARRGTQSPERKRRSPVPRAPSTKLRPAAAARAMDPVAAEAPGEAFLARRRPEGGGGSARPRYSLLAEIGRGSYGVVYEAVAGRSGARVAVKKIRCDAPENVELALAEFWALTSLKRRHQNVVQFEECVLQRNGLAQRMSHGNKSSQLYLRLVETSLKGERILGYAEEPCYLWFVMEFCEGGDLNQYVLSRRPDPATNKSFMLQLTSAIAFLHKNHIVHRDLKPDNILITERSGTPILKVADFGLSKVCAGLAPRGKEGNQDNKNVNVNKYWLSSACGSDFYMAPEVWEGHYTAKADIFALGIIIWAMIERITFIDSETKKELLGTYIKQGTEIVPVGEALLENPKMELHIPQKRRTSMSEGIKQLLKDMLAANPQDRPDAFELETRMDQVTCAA
Sequence of RAF proto-oncogene serine/threonine-protein kinase (Homo sapiens) (P04049 whole entry): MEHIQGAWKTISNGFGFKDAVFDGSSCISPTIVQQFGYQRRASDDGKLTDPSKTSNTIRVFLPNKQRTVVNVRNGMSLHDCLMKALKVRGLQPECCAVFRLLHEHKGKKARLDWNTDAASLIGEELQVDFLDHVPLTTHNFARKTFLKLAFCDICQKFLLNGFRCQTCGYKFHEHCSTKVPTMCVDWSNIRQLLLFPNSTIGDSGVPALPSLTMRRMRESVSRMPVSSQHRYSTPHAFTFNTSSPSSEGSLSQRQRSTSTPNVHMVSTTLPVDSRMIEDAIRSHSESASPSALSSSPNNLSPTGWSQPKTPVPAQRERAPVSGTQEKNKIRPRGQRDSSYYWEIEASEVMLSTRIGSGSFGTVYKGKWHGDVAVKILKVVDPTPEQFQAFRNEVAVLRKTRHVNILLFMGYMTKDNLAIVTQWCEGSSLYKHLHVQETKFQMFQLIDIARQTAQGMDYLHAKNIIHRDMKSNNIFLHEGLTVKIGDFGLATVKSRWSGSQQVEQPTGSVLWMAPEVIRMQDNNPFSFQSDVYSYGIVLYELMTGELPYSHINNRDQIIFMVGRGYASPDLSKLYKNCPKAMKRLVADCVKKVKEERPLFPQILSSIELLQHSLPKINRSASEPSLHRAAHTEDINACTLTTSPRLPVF
Sequence of Dual specificity tyrosine-phosphorylation-regulated kinase 1B (Q9Y463 whole entry, looked up): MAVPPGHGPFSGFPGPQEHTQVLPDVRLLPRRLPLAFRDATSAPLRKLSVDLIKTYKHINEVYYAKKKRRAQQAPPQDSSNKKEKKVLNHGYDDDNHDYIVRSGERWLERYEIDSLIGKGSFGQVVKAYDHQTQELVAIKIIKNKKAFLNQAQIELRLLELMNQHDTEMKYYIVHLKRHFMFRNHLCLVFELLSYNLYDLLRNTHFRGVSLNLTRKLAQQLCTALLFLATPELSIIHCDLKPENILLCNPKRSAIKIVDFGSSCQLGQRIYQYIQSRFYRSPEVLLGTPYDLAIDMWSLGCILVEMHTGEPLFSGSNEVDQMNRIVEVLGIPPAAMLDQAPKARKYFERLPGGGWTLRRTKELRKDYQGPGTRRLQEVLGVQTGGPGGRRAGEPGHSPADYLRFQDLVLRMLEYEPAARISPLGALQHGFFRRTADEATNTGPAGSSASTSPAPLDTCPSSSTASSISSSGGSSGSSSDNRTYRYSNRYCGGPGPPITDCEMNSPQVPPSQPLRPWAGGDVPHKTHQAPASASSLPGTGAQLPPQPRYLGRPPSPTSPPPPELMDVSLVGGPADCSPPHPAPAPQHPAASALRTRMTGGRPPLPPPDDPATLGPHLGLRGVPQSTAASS
Sequence of Dual specificity protein kinase CLK3 (P49761 whole entry, looked up): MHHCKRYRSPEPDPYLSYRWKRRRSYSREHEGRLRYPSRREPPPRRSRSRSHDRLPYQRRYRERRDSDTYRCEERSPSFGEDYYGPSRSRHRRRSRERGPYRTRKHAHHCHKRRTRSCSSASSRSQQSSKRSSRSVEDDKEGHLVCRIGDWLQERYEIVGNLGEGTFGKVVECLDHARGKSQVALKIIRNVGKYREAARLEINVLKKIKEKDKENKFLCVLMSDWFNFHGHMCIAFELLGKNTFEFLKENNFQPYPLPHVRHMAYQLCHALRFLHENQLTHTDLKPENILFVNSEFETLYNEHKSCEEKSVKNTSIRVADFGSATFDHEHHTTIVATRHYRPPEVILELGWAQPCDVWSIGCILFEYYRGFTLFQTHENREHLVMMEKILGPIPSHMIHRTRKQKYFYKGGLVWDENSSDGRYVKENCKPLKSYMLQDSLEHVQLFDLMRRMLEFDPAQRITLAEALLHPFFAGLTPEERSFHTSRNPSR
Sequence of Serine/threonine-protein kinase B-raf (Homo sapiens) (P15056 whole entry): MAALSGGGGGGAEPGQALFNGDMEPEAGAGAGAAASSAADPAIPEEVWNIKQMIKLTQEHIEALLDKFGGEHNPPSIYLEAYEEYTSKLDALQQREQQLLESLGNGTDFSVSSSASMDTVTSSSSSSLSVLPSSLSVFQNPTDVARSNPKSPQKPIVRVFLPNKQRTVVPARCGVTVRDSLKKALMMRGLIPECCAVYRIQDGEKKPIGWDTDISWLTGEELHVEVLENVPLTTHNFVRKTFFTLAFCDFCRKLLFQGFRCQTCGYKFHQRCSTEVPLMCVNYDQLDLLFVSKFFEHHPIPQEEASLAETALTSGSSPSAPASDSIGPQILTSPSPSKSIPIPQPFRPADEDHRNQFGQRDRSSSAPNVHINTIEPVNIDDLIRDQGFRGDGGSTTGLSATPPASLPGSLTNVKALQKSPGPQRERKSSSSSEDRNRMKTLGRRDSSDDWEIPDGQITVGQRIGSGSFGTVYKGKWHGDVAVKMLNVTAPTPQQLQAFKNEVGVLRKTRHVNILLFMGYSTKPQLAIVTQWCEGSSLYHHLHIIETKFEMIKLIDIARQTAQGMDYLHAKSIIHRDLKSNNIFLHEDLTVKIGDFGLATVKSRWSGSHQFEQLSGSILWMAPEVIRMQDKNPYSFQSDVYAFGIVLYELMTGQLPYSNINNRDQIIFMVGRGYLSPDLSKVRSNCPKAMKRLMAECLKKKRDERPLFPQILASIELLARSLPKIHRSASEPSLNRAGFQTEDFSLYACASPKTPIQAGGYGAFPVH

`O=C(NOC[C@H](O)CO)c1ccc(F)c(F)c1Nc1ccc(I)cc1F` showed a % of control [1] of 100%.
`Nc1cnc(N2CCc3cc(S(=O)(=O)Nc4c(F)cc(Cl)cc4F)cc(N4CCCC4=O)c32)nc1` [TP-020n] gave a % of control [2] of 100%.
Compound `CN(C(=O)c1cnn2cccnc12)c1cc2c(cc1N1CCOCC1)C(=O)N(C[C@@H](F)C(C)(C)O)C2` has a dTM [3] of -0.6 K.
For `Cc1cnc(Nc2ccc(F)cc2Cl)nc1-c1c[nH]c(C(=O)N[C@H](CO)c2cccc(Cl)c2)c1`, the % of inhibition [4] was 9%.
`C=CC(=O)Nc1cc(-n2c(=O)ccc3cnc4ccc(-c5ccc(NS(C)(=O)=O)cc5)cc4c32)ccc1C` showed a % of control ([5]; at 1 µM) of 100%, a % of control ([5]; at 10 µM) of 69% and a % of control ([6]; at 1 µM) of 100%. It also gave a % of control ([6]; at 10 µM) of 100%.
With `Cc1cc([C@@H](C)Nc2ccccc2C(=O)O)c2nc(N3CCOCC3)cc(=O)n2c1` [AZD-6482] the % of control [7] was 100%.
`CN(C)CCOc1ccc(-c2nc(-c3ccncc3)c(-c3ccc4c(c3)CC/C4=N\O)[nH]2)cc1` was tested, and the % of control [8] was 0%.
Work on `CNC(=O)Nc1ccc(-c2nc(N3CC4CCC(C3)O4)c3cnn(C4CCC5(CC4)OCCO5)c3n2)cc1` yielded a % of inhibition [9] of -16% and a % of inhibition [10] of 0%.
